Activity calls are given as the source filed them. The calls are words filed in the database; no cut-off is given here.
Tests used:
Format in all cases: cell-based
[1] = biological target: T1, Potassium channel subfamily K member 2 (Homo sapiens) (UniProt O95069); test: Activation of K2P2.1 (unknown origin) expressed in whole HEK293T cells in assessed as effect on channel currents by measuring time of half-maximal activation at 20 uM by two-electrode voltage clamp assay relative to control
T1 sequence (whole entry): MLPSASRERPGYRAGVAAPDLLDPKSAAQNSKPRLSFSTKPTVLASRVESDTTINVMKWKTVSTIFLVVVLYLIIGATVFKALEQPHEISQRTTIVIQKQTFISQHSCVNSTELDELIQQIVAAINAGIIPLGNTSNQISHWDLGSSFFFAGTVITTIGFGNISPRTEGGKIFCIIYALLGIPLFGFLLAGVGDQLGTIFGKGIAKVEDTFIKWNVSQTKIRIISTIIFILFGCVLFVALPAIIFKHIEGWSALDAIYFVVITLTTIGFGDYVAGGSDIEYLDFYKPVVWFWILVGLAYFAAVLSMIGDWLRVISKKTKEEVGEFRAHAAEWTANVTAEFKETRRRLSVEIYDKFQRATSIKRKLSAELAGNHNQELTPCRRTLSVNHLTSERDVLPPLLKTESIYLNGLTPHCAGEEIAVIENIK

[2] = biological target: T1, Potassium channel subfamily K member 2 (Homo sapiens); test: Activation of K2P2.1 (unknown origin) expressed in HEK293T cells assessed as effect on channel currents by measuring half-maximal activation time at 5 to 20 uM by two-electrode voltage clamp assay relative to control
[3] = test system: Potassium channel subfamily K member 2 (Homo sapiens), O95069 [UNDEFINED MUTATION]; test: Activation of K2P2.1 G137I mutant (unknown origin) expressed in Xenopus oocytes assessed as effect on channel currents at 150 uM at -80 mV holding potential by two-electrode voltage clamp assay relative to control
[4] = biological target: T1, Potassium channel subfamily K member 2 (Homo sapiens); test: Activation of K2P2.1 (unknown origin) expressed in HEK293T cell membranes in inside-out patch configuration assessed as effect on channel currents at 20 uM by two-electrode voltage clamp assay relative to control
[5] = biological target: T1, Potassium channel subfamily K member 2 (Homo sapiens); test: Reversible activation of K2P2.1 (unknown origin) expressed in HEK293T cells assessed as effect on channel currents at -0 mV holding potential at 5 to 20 uM by two-electrode voltage clamp assay relative to control
[6] = biological target: T1, Potassium channel subfamily K member 2 (Homo sapiens); test: Activation of K2P2.1 (unknown origin) expressed in HEK293T cell membranes in inside-out patch configuration assessed as effect on channel currents by measuring time of half-maximal activation at 20 uM by two-electrode voltage clamp assay relative to control
[7] = biological target: T2, Potassium channel subfamily K member 10 (Homo sapiens) (UniProt P57789); test: Activation of K2P10.1 (unknown origin) expressed in Xenopus oocytes assessed as effect on channel currents at -80 mV holding potential at 100 uM by two-electrode voltage clamp assay relative to control
T2 sequence (whole entry): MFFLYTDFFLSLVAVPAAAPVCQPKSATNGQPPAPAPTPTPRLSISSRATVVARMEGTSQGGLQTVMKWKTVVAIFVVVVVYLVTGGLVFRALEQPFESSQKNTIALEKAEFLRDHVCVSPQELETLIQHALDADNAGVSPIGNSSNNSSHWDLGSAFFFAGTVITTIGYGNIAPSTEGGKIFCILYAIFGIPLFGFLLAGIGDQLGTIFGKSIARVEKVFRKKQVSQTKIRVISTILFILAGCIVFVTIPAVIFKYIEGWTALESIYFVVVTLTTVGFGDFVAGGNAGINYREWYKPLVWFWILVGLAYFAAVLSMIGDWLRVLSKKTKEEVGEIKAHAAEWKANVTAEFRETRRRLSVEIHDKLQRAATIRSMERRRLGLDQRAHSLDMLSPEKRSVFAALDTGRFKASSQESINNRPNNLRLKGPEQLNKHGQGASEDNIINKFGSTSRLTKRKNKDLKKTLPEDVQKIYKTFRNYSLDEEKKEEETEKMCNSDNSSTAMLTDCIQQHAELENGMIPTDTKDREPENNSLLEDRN

[8] = biological target: T1, Potassium channel subfamily K member 2 (Homo sapiens); test: Activation of K2P2.1 (unknown origin) expressed in Xenopus oocytes assessed as effect on channel currents at -80 mV holding at 100 uM by two-electrode voltage clamp assay relative to control
[9] = biological target: T3, Potassium channel subfamily K member 18 (Homo sapiens) (UniProt Q7Z418); test: Activation of K2P18.1 (unknown origin) expressed in Xenopus oocytes assessed as effect on channel currents at -80 mV holding potential by two-electrode voltage clamp assay relative to control
T3 sequence (whole entry): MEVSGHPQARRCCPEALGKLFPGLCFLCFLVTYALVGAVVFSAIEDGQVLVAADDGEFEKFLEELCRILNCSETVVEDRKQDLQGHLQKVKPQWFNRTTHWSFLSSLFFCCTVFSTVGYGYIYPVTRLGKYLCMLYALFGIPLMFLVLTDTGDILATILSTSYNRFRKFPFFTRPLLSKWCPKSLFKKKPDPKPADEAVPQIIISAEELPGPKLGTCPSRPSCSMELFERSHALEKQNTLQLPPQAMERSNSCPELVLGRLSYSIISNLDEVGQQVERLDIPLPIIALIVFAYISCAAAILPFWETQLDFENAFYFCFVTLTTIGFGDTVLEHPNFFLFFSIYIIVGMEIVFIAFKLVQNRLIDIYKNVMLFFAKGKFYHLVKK

[10] = biological target: T1, Potassium channel subfamily K member 2 (Homo sapiens); test: Activation of K2P2.1 (unknown origin) expressed in HEK293T cell membranes in outside-out patch configuration assessed as effect on channel currents by measuring time of half-maximal activation at 20 uM by two-electrode voltage clamp assay relative to control
[11] = biological target: Potassium channel subfamily K member 3 (Homo sapiens) (UniProt O14649); test: Activation of K2P3.1 (unknown origin) expressed in Xenopus oocytes assessed as effect on channel currents at -80 mV holding potential by two-electrode voltage clamp assay relative to control
[12] = biological target: Potassium voltage-gated channel subfamily KQT member 2 (Homo sapiens) (UniProt O43526); test: Activation of Kv7.2 (unknown origin) expressed in Xenopus oocytes assessed as effect on channel currents at 100 uM at -80 mV holding potential by two-electrode voltage clamp assay relative to control
[13] = biological target: T1, Potassium channel subfamily K member 2 (Homo sapiens); test: Activation of K2P2.1 (unknown origin) expressed in whole HEK293T cells assessed as effect on channel currents by measuring time of return to baseline following compound washout at 20 uM by two-electrode voltage clamp assay relative to control
[14] = biological target: T3, Potassium channel subfamily K member 18 (Homo sapiens); test: Activation of K2P18.1 (unknown origin) expressed in Xenopus oocytes assessed as effect on channel currents at -80 mV holding potential at 100 uM by two-electrode voltage clamp assay relative to control

Chain of Potassium channel subfamily K member 3 (Homo sapiens) (O14649 whole entry, looked up): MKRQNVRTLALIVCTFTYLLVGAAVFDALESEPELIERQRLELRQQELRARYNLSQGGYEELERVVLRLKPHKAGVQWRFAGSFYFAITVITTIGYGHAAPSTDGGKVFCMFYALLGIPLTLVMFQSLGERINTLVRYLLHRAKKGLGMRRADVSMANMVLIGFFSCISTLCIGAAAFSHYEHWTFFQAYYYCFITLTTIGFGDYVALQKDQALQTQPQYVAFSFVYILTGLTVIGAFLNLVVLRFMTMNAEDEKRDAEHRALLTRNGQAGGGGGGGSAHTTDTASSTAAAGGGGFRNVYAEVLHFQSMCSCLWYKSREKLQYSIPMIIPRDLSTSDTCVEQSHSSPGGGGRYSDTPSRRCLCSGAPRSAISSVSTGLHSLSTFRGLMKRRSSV
Chain of Potassium voltage-gated channel subfamily KQT member 2 (Homo sapiens) (O43526 whole entry): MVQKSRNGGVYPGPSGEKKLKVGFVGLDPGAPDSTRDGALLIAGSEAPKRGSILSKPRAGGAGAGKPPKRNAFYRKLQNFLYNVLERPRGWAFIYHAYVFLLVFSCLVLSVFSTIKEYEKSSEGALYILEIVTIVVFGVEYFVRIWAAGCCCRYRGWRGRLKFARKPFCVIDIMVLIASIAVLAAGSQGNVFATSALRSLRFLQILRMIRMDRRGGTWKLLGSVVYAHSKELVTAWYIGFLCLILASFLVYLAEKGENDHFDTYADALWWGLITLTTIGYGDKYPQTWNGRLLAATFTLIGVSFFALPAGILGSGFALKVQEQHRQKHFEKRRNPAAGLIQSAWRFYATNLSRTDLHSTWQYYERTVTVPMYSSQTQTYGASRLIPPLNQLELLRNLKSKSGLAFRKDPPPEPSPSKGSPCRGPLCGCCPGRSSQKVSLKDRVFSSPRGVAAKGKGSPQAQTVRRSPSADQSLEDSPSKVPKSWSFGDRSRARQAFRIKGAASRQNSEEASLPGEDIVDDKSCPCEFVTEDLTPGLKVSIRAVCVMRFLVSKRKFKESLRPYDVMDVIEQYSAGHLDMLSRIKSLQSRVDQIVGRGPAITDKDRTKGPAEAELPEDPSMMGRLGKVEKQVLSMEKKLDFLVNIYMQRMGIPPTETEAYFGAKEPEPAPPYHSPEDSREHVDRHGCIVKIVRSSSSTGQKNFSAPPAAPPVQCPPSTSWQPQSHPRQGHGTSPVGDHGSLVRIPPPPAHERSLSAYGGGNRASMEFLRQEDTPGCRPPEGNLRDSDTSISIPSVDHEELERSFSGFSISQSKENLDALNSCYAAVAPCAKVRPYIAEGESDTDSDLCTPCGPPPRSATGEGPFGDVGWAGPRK

- T1/2 [1]: 4.1 s
- TIME [2]: 0.00114 h
- Emax [3]: 0.9
- Activity [4]: Active
- Activity [5]: Active
- T1/2 [6]: 10.8 s
- Emax [7]: 11.4%
- Emax [8]: 11.1%
- Emax [9]: 0.9
- T1/2 [10]: 4.6 s
- Emax [11]: 1.1
- Activity [12]: inactive
- T1/2 [13]: 3.9 s
- Emax [14]: 0.9%
SMILES: CC1(C)c2cc(Cl)ccc2N(CCc2nnn[nH]2)c2ccc(Cl)cc21

— ChEMBL document CHEMBL4421719, “Modulation of k2p channels” (2016)
